# Assay: Chronic DIO Mouse, second study (food intake, body weight, insulin tolerance test, glucose tolerance test, plasma insulin, fed blood glucose)
# Assay type: in vivo
# Settings: DIO mice
# Protocol: Male 14-20-week old diet-induced obese mice were ordered from Taconic. Mice were started on a 60% fat diet (D12492, Research Diets, New Brunswick, N.J.) at 6 weeks of age. Mice were single-housed.
# Test compounds were formulated in 10% PEG400 and 10% solutol. Test compounds were administered by oral gavage (5 ml kg^−1).
# The test compound was formulated in 10% PEG400 and 10% solutol. DIO mice received vehicle, test compound (@ 1, 3 and 10 mg/kg) daily for 26 days. At the end of the experiment, the mice were euthanized and blood and tissues were collected.
# Body weight and food weight (food intake) were monitored daily for days 1-5 and twice weekly thereafter. Fed blood glucose was measured weekly.
# An insulin tolerance test (0.5 U/kg Humulin, ip) was performed on day 19 after a 4 hour food removal. Blood glucose was measured at 0, 15, 30, 60 and 120 minutes after insulin. […] Blood glucose was measured at 0, 30, 60 and 120 minutes after glucose challenge.
# Blood glucose was measured from the tail vein with a Lifescan glucometer. Plasma insulin was measured with an ELISA or HTRF kit (Cisbio). Plasma parameters were measured with an Olympus clinical chemistry analyzer.
# In a second study, Compound #44 was tested according to the procedure as described above, with results as listed in Tables BIO-5A through 5G, below.
smiles,measurement,setting,value
"O=c1cc(NC2CCN(S(=O)(=O)C(F)(F)F)CC2)c2cc(C(c3ccc(Cl)cc3)c3ccc(Cl)cc3)ccc2[nH]1 [Compound #44, 6-(bis(4-chlorophenyl)methyl)-4-(1-(trifluoromethylsulfonyl)piperidin-4-ylamino)quinolin-2(1H)-one]","Insulin Tolerance Test, Blood Glucose AUC",0.3 mg/kg,20233.13 mg·min/dL
same,Intraperitoneal Glucose Tolerance Test Blood Glucose AUC,0.3 mg/kg,21550.00 mg·min/dL
same,Plasma Insulin (Std Err),0.3 mg/kg,3.89 (0.31) ng/mL
same,Intraperitoneal Glucose Tolerance Test Mean Blood Glucose,"0.3 mg/kg, 0 min after glucose",155.44 mg/dL
same,"Insulin Tolerance Test, Mean Blood Glucose","0.3 mg/kg, 0 min after insulin",185.00 mg/dL
same,"Insulin Tolerance Test, Mean Blood Glucose","0.3 mg/kg, 15 min after insulin",172.38 mg/dL
same,Intraperitoneal Glucose Tolerance Test Mean Blood Glucose,"0.3 mg/kg, 30 min after glucose",204.33 mg/dL
same,"Insulin Tolerance Test, Mean Blood Glucose","0.3 mg/kg, 30 min after insulin",164.13 mg/dL
same,Intraperitoneal Glucose Tolerance Test Mean Blood Glucose,"0.3 mg/kg, 60 min after glucose",187.67 mg/dL
same,"Insulin Tolerance Test, Mean Blood Glucose","0.3 mg/kg, 60 min after insulin",169.38 mg/dL
same,Intraperitoneal Glucose Tolerance Test Mean Blood Glucose,"0.3 mg/kg, 120 min after glucose",154.78 mg/dL
same,"Insulin Tolerance Test, Mean Blood Glucose","0.3 mg/kg, 120 min after insulin",165.13 mg/dL
same,Fed Blood Glucose (Std Err),"0.3 mg/kg, Day 0",165.4 (8.16) mg/dL
same,Mean Body Weight,"0.3 mg/kg, Day 1",40.78 Grams
same,Mean Body Weight,"0.3 mg/kg, Day 2",40.87 Grams
same,Mean Daily Food Intake,"0.3 mg/kg, Day 2",2.51 Grams
same,Mean Body Weight,"0.3 mg/kg, Day 3",40.77 Grams
same,Mean Daily Food Intake,"0.3 mg/kg, Day 3",2.92 Grams
same,Mean Body Weight,"0.3 mg/kg, Day 4",40.33 Grams
same,Mean Daily Food Intake,"0.3 mg/kg, Day 4",2.76 Grams
same,Mean Body Weight,"0.3 mg/kg, Day 5",40.53 Grams
same,Mean Daily Food Intake,"0.3 mg/kg, Day 5",2.64 Grams
same,Mean Body Weight,"0.3 mg/kg, Day 8",40.87 Grams
same,Mean Daily Food Intake,"0.3 mg/kg, Day 8",2.80 Grams
same,Mean Body Weight,"0.3 mg/kg, Day 10",41.06 Grams
same,Mean Daily Food Intake,"0.3 mg/kg, Day 10",2.81 Grams
same,Mean Body Weight,"0.3 mg/kg, Day 11",41.61 Grams
same,Mean Daily Food Intake,"0.3 mg/kg, Day 11",2.68 Grams
same,Fed Blood Glucose (Std Err),"0.3 mg/kg, Day 18",161.22 (6.29) mg/dL
same,"Insulin Tolerance Test, Blood Glucose AUC",1 mg/kg,21698.33 mg·min/dL
same,Intraperitoneal Glucose Tolerance Test Blood Glucose AUC,1 mg/kg,22102.50 mg·min/dL
same,Plasma Insulin (Std Err),1 mg/kg,3.12 (0.64) ng/mL
same,Intraperitoneal Glucose Tolerance Test Mean Blood Glucose,"1 mg/kg, 0 min after glucose",156.60 mg/dL
same,"Insulin Tolerance Test, Mean Blood Glucose","1 mg/kg, 0 min after insulin",181.70 mg/dL
same,"Insulin Tolerance Test, Mean Blood Glucose","1 mg/kg, 15 min after insulin",193.89 mg/dL
same,Intraperitoneal Glucose Tolerance Test Mean Blood Glucose,"1 mg/kg, 30 min after glucose",225.20 mg/dL
same,"Insulin Tolerance Test, Mean Blood Glucose","1 mg/kg, 30 min after insulin",170.56 mg/dL
same,Intraperitoneal Glucose Tolerance Test Mean Blood Glucose,"1 mg/kg, 60 min after glucose",185.50 mg/dL
same,"Insulin Tolerance Test, Mean Blood Glucose","1 mg/kg, 60 min after insulin",182.78 mg/dL
same,Intraperitoneal Glucose Tolerance Test Mean Blood Glucose,"1 mg/kg, 120 min after glucose",155.00 mg/dL
same,"Insulin Tolerance Test, Mean Blood Glucose","1 mg/kg, 120 min after insulin",179.40 mg/dL
same,Fed Blood Glucose (Std Err),"1 mg/kg, Day 0",170.80 (5.99) mg/dL
same,Mean Body Weight,"1 mg/kg, Day 1",40.60 Grams
same,Mean Body Weight,"1 mg/kg, Day 2",40.78 Grams
same,Mean Daily Food Intake,"1 mg/kg, Day 2",2.84 Grams
same,Mean Body Weight,"1 mg/kg, Day 3",40.85 Grams
same,Mean Daily Food Intake,"1 mg/kg, Day 3",2.79 Grams
same,Mean Body Weight,"1 mg/kg, Day 4",40.36 Grams
same,Mean Daily Food Intake,"1 mg/kg, Day 4",2.45 Grams
same,Mean Body Weight,"1 mg/kg, Day 5",40.42 Grams
same,Mean Daily Food Intake,"1 mg/kg, Day 5",2.49 Grams
same,Mean Body Weight,"1 mg/kg, Day 8",40.16 Grams
same,Mean Daily Food Intake,"1 mg/kg, Day 8",2.63 Grams
same,Mean Body Weight,"1 mg/kg, Day 10",40.73 Grams
same,Mean Daily Food Intake,"1 mg/kg, Day 10",2.67 Grams
same,Mean Body Weight,"1 mg/kg, Day 11",40.74 Grams
same,Mean Daily Food Intake,"1 mg/kg, Day 11",2.57 Grams
same,Fed Blood Glucose (Std Err),"1 mg/kg, Day 18",151.20 (6.14) mg/dL
same,"Insulin Tolerance Test, Blood Glucose AUC",3 mg/kg,19435.83 mg·min/dL
same,Intraperitoneal Glucose Tolerance Test Blood Glucose AUC,3 mg/kg,20854.50 mg·min/dL
same,Plasma Insulin (Std Err),3 mg/kg,1.74 (0.14) ng/mL
same,Intraperitoneal Glucose Tolerance Test Mean Blood Glucose,"3 mg/kg, 0 min after glucose",141.30 mg/dL
same,"Insulin Tolerance Test, Mean Blood Glucose","3 mg/kg, 0 min after insulin",161.10 mg/dL
same,"Insulin Tolerance Test, Mean Blood Glucose","3 mg/kg, 15 min after insulin",179.67 mg/dL
same,Intraperitoneal Glucose Tolerance Test Mean Blood Glucose,"3 mg/kg, 30 min after glucose",224.30 mg/dL
same,"Insulin Tolerance Test, Mean Blood Glucose","3 mg/kg, 30 min after insulin",156.33 mg/dL
same,Intraperitoneal Glucose Tolerance Test Mean Blood Glucose,"3 mg/kg, 60 min after glucose",174.20 mg/dL
same,"Insulin Tolerance Test, Mean Blood Glucose","3 mg/kg, 60 min after insulin",167.22 mg/dL
same,Intraperitoneal Glucose Tolerance Test Mean Blood Glucose,"3 mg/kg, 120 min after glucose",138.90 mg/dL
same,"Insulin Tolerance Test, Mean Blood Glucose","3 mg/kg, 120 min after insulin",159.78 mg/dL
same,Fed Blood Glucose (Std Err),"3 mg/kg, Day 0",161.8 (6.57) mg/dL
same,Mean Body Weight,"3 mg/kg, Day 1",40.54 Grams
same,Mean Body Weight,"3 mg/kg, Day 2",40.47 Grams
same,Mean Daily Food Intake,"3 mg/kg, Day 2",2.50 Grams
same,Mean Body Weight,"3 mg/kg, Day 3",40.24 Grams
same,Mean Daily Food Intake,"3 mg/kg, Day 3",2.41 Grams
same,Mean Body Weight,"3 mg/kg, Day 4",39.39 Grams
same,Mean Daily Food Intake,"3 mg/kg, Day 4",2.02 Grams
same,Mean Body Weight,"3 mg/kg, Day 5",39.11 Grams
same,Mean Daily Food Intake,"3 mg/kg, Day 5",2.02 Grams
same,Mean Body Weight,"3 mg/kg, Day 8",38.59 Grams
same,Mean Daily Food Intake,"3 mg/kg, Day 8",2.13 Grams
same,Mean Body Weight,"3 mg/kg, Day 10",38.48 Grams
same,Mean Daily Food Intake,"3 mg/kg, Day 10",2.57 Grams
same,Mean Body Weight,"3 mg/kg, Day 11",38.13 Grams
same,Mean Daily Food Intake,"3 mg/kg, Day 11",2.29 Grams
same,Fed Blood Glucose (Std Err),"3 mg/kg, Day 18",142.60 (4.44) mg/dL
same,"Insulin Tolerance Test, Blood Glucose AUC",10 mg/kg,16134.75 mg·min/dL
same,Intraperitoneal Glucose Tolerance Test Blood Glucose AUC,10 mg/kg,20820.00 mg·min/dL
same,Plasma Insulin (Std Err),10 mg/kg,1.64 (0.32) ng/mL
same,Intraperitoneal Glucose Tolerance Test Mean Blood Glucose,"10 mg/kg, 0 min after glucose",149.00 mg/dL
same,"Insulin Tolerance Test, Mean Blood Glucose","10 mg/kg, 0 min after insulin",161.10 mg/dL
same,"Insulin Tolerance Test, Mean Blood Glucose","10 mg/kg, 15 min after insulin",143.90 mg/dL
same,Intraperitoneal Glucose Tolerance Test Mean Blood Glucose,"10 mg/kg, 30 min after glucose",218.50 mg/dL
same,"Insulin Tolerance Test, Mean Blood Glucose","10 mg/kg, 30 min after insulin",133.60 mg/dL
same,Intraperitoneal Glucose Tolerance Test Mean Blood Glucose,"10 mg/kg, 60 min after glucose",169.60 mg/dL
same,"Insulin Tolerance Test, Mean Blood Glucose","10 mg/kg, 60 min after insulin",126.20 mg/dL
same,Intraperitoneal Glucose Tolerance Test Mean Blood Glucose,"10 mg/kg, 120 min after glucose",146.60 mg/dL
same,"Insulin Tolerance Test, Mean Blood Glucose","10 mg/kg, 120 min after insulin",136.10 mg/dL
same,Fed Blood Glucose (Std Err),"10 mg/kg, Day 0",167.9 (4.63) mg/dL
same,Mean Body Weight,"10 mg/kg, Day 1",40.51 Grams
same,Mean Body Weight,"10 mg/kg, Day 2",39.87 Grams
same,Mean Daily Food Intake,"10 mg/kg, Day 2",2.07 Grams
same,Mean Body Weight,"10 mg/kg, Day 3",39.16 Grams
same,Mean Daily Food Intake,"10 mg/kg, Day 3",1.63 Grams
same,Mean Body Weight,"10 mg/kg, Day 4",38.04 Grams
same,Mean Daily Food Intake,"10 mg/kg, Day 4",1.48 Grams
same,Mean Body Weight,"10 mg/kg, Day 5",37.5 Grams
same,Mean Daily Food Intake,"10 mg/kg, Day 5",1.38 Grams
same,Mean Body Weight,"10 mg/kg, Day 8",35.69 Grams
same,Mean Daily Food Intake,"10 mg/kg, Day 8",1.64 Grams
same,Mean Body Weight,"10 mg/kg, Day 10",35.08 Grams
same,Mean Daily Food Intake,"10 mg/kg, Day 10",2.08 Grams
same,Mean Body Weight,"10 mg/kg, Day 11",34.63 Grams
same,Mean Daily Food Intake,"10 mg/kg, Day 11",2.12 Grams
same,Fed Blood Glucose (Std Err),"10 mg/kg, Day 18",144.30 (6.47) mg/dL

# — patent US9266835B2, “Quinoline derivatives useful as CB-1 inverse agonists” (JANSSEN PHARMACEUTICA NV, priority 2014, dated 2016)
